Values after ≈ are worked out from the molar mass of the structure shown. Values joined by “and” are separate entries in the source; they are usually repeats but may differ in a detail not shown here. Identical values can stand only once. Like-named read-outs stand apart in the source and are kept apart here. Ends that are not written are not given here.
Assays:
Escherichia coli = type: cell-based
Protocol: (§1) The minimal inhibitory concentration (MIC) of each peptide against various bacteria was determined using a standardized dilution method according to NCSLA guidelines [35]. Overnight colonies of E. coli, Pseudomonas aeruginosa, Salmonella typhimurium, Staphylococcus epidermis and Staphylococcus aureus, were suspended to a turbidity of 0.5 OD units and further diluted in Mueller-Hinton broth (MHB). […] Ten microliters of each concentration was added to each corresponding well of a 96-well polypropylene microtiter plate and 1×10^5 bacteria in the volume of 90 µL. The plate was incubated at 37°C for 16 h and then read at 600 nm with a Synergy H1 hybrid reader (Biotek).

Pseudomonas aeruginosa = type: cell-based
Protocol: as §1

Salmonella typhimurium = type: cell-based
Protocol: as §1

Staphylococcus epidermis = type: cell-based
Protocol: as §1

Staphylococcus aureus = type: cell-based
Protocol: as §1

human red blood cells = experiment: Haemolytic activity; type: cell-based; conditions: 0.5% human RBC, 1 h 37°C, OD 414 nm, 100% = 1% Triton X-100, triplicate
Protocol: The peptide's haemolytic activities were determined using human red blood cells (RBCs; Research Blood Components, LLC) in 96-well polypropylene microtiter plates. One hundred µl of 0.5% RBC suspension was added to an equal volume of a peptide (8–256 µg/ml). After 1 h at 37°C, plates were centrifuged at 1420×g for 5 min and the optical density of the supernatant was measured at 414 nm with a Synergy H1 hybrid reader (Biotek). Values for 0% and 100% lysis were obtained by adding PBS or Triton X-100 (1%; final concentration) to RBCs, respectively. All assays were performed in triplicate and the values of percent lysis were within a 1% standard deviation range.

[1] = Escherichia coli, Mueller Hinton broth, acetic acid/BSA, 1×10^5 bacteria, 37°C 16 h, read at 600 nm
[2] = Pseudomonas aeruginosa, Mueller Hinton broth, acetic acid/BSA, 1×10^5 bacteria, 37°C 16 h, read at 600 nm
[3] = Salmonella typhimurium, Mueller Hinton broth, acetic acid/BSA, 1×10^5 bacteria, 37°C 16 h, read at 600 nm
[4] = Staphylococcus epidermis, Mueller Hinton broth, acetic acid/BSA, 1×10^5 bacteria, 37°C 16 h, read at 600 nm
[5] = Staphylococcus aureus, Mueller Hinton broth, acetic acid/BSA, 1×10^5 bacteria, 37°C 16 h, read at 600 nm

For `CC[C@H](C)[C@H](NC(=O)[C@H](CCCCN)NC(=O)[C@H](CCC(=O)O)NC(=O)[C@H](CCCCN)NC(=O)[C@H](CO)NC(=O)[C@H](CCCCN)NC(=O)[C@H](CCCNC(=N)N)NC(=O)[C@H](Cc1ccccc1)NC(=O)[C@H](Cc1ccccc1)NC(=O)[C@H](CC(=O)O)NC(=O)CNC(=O)[C@H](CC(C)C)NC(=O)[C@@H](N)CC(C)C)C(=O)NCC(=O)N[C@@H](CCCCN)C(=O)N[C@@H](CCC(=O)O)C(=O)N[C@@H](Cc1ccccc1)C(=O)N[C@@H](CCCCN)C(=O)N[C@@H](CCCNC(=N)N)C(=O)N[C@H](C(=O)N[C@H](C(=O)N[C@@H](CCC(N)=O)C(=O)N[C@@H](CCCNC(=N)N)C(=O)N[C@H](C(=O)N[C@@H](CCCCN)C(=O)N[C@@H](CC(=O)O)C(=O)N[C@@H](Cc1ccccc1)C(=O)N[C@@H](CC(C)C)C(=O)N[C@@H](CCCNC(=N)N)C(=O)N[C@@H](CC(N)=O)C(=O)N[C@@H](CC(C)C)C(=O)N[C@H](C(=O)N1CCC[C@H]1C(=O)N[C@@H](CCCNC(=N)N)C(=O)N[C@H](C(=O)N[C@@H](CCC(=O)O)C(=O)N[C@@H](CO)C(=O)O)[C@@H](C)O)C(C)C)[C@@H](C)CC)C(C)C)[C@@H](C)CC` [LL-37, reference compound], which MIC (Escherichia coli; [1]) is on record?
The MIC was 4 µg/mL (≈ 0.89 µM).

And the MIC (Pseudomonas aeruginosa; [2])?
Its MIC is 8 µg/mL (≈ 1.78 µM).

What about the MIC (Salmonella typhimurium; [3]) of the same compound?
The MIC was 2 µg/mL (≈ 0.445 µM).

And the MIC (Staphylococcus epidermis; [4])?
Its MIC is >128 µg/mL.

And the MIC (Staphylococcus aureus; [5])?
Its MIC is >128 µg/mL.

What about the Hemolytic activity (human red blood cells; peptide 16 µg/ml) of the same compound?
Its Hemolytic activity is 1.7%.

And the Hemolytic activity (human red blood cells; peptide 32 µg/ml)?
Its Hemolytic activity is 4.1%.

And the Hemolytic activity (human red blood cells; peptide 64 µg/ml)?
The Hemolytic activity was 10.4%.

And the Hemolytic activity (human red blood cells; peptide 128 µg/ml)?
The Hemolytic activity was 20%.

And the Hemolytic activity (human red blood cells; peptide 256 µg/ml)?
Its Hemolytic activity is 20%.

With “MDKYIRKEDLGMKMLDVAKILGRRIEKRMEYIAKK [Sm16-p73]” as the compound, how does the MIC (Escherichia coli; [1]) read?
Its MIC is >128 µg/mL.

And the MIC (Pseudomonas aeruginosa; [2])?
Its MIC is >128 µg/mL.

What about the MIC (Salmonella typhimurium; [3]) of the same compound?
The MIC was >128 µg/mL.

And the MIC (Staphylococcus epidermis; [4])?
Its MIC is >128 µg/mL.

What about the MIC (Staphylococcus aureus; [5]) of the same compound?
The MIC was >128 µg/mL.

And the Hemolytic activity (human red blood cells; peptide 8 µg/ml)?
The Hemolytic activity was 0%.

What about the Hemolytic activity (human red blood cells; peptide 16 µg/ml) of the same compound?
Its Hemolytic activity is 0%.

What about the Hemolytic activity (human red blood cells; peptide 32 µg/ml) of the same compound?
The Hemolytic activity was 0%.

And the Hemolytic activity (human red blood cells; peptide 64 µg/ml)?
The Hemolytic activity was 0%.

What about the Hemolytic activity (human red blood cells; peptide 128 µg/ml) of the same compound?
The Hemolytic activity was 0%.

What about the Hemolytic activity (human red blood cells; peptide 256 µg/ml) of the same compound?
Its Hemolytic activity is 0%.

For “ISRLAGLLRKGGEKIGEKLKKIGQKIKNFFQKLVPQPE [CRAMP]”, which MIC (Escherichia coli; 16 h) is on record?
The MIC was 2 µg/mL.

What about the MIC (Pseudomonas aeruginosa; 16 h) of the same compound?
Its MIC is 4 µg/mL.

What about the MIC (Salmonella typhimurium; murium, 16 h) of the same compound?
The MIC was 4 µg/mL.

What about the MIC (Staphylococcus epidermis; 16 h) of the same compound?
Its MIC is >128 µg/mL.

What about the MIC (Staphylococcus aureus; 16 h) of the same compound?
Its MIC is >128 µg/mL.

Which Hemolytic activity does the source give for GGLRSLGRKILRAWKKYGPIIVPIIRIG [BMAP-28] here?
Its Hemolytic activity is 50% and 70%.

What about the MIC (Escherichia coli; 16 h) of the same compound?
Its MIC is 1 µg/mL.

And the MIC (Pseudomonas aeruginosa; 16 h)?
The MIC was 4 µg/mL.

What about the MIC (Salmonella typhimurium; murium, 16 h) of the same compound?
The MIC was 4 µg/mL.

And the MIC (Staphylococcus epidermis; 16 h)?
Its MIC is 4 µg/mL.

And the MIC (Staphylococcus aureus; 16 h)?
The MIC was 8 µg/mL.

With “AMAYLAKDNLGEKITEVITILLNRLTDRLEKYAG [FhHDM-1p2]” as the compound, how does the MIC (Escherichia coli; [1]) read?
Its MIC is >128 µg/mL.

And the MIC (Pseudomonas aeruginosa; [2])?
The MIC was >128 µg/mL.

What about the MIC (Salmonella typhimurium; [3]) of the same compound?
Its MIC is >128 µg/mL.

What about the MIC (Staphylococcus epidermis; [4]) of the same compound?
Its MIC is >128 µg/mL.

What about the MIC (Staphylococcus aureus; [5]) of the same compound?
Its MIC is >128 µg/mL.

What about the Hemolytic activity (human red blood cells; peptide 8 µg/ml) of the same compound?
Its Hemolytic activity is 0%.

What about the Hemolytic activity (human red blood cells; peptide 16 µg/ml) of the same compound?
Its Hemolytic activity is 0%.

What about the Hemolytic activity (human red blood cells; peptide 32 µg/ml) of the same compound?
Its Hemolytic activity is 1.8%.

And the Hemolytic activity (human red blood cells; peptide 64 µg/ml)?
Its Hemolytic activity is 2.6%.

What about the Hemolytic activity (human red blood cells; peptide 128 µg/ml) of the same compound?
The Hemolytic activity was 5.4%.

And the Hemolytic activity (human red blood cells; peptide 256 µg/ml)?
The Hemolytic activity was 11.4%.

From publication PMC3708846, “Cathelicidin-like Helminth Defence Molecules (HDMs): Absence of Cytotoxic, Anti-microbial and Anti-protozoan Activities Imply a Specific Adaptation to Immune Modulation” (PLoS Neglected Tropical Diseases, 2013)
